Reference: US20240182445A1 (ONO PHARMACEUTICAL CO., LTD., priority 2019, published 2024)

Target: T1, human TREK-1 (Homo sapiens, UniProt O95069)
T1 construct: expressed in transfected cells
T1 sequence (O95069 1-426): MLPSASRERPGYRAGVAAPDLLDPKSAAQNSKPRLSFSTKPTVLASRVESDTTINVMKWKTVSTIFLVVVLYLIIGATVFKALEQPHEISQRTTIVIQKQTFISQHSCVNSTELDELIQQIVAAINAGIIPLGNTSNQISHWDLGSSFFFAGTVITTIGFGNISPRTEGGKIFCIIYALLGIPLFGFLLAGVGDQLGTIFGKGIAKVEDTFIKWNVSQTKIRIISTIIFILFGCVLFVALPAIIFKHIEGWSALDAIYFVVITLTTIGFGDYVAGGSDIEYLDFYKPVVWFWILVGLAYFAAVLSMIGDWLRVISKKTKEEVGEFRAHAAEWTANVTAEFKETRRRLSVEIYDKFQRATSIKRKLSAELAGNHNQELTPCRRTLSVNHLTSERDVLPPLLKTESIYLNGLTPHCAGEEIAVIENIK
Assay: TREK-1 Thallium (Tl+) flux assay, Method 1
Type: cell-based
Details: TREK-1 Thallium (Tl+) flux assay, Method 1
Method in brief: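 CHO-K1 cells stably expressing human TREK-1, loaded with Thallos dye, received compound or 0.3% DMSO vehicle for 10 min before thallium stimulus buffer. ΔRatio is fluorescence at 25 s after thallium addition over mean pre-addition fluorescence; % inhibition calculated from it.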

| IC50 [µM] | Structure (SMILES) |
| --- | --- |
| 4.38 | Cc1cc(OCc2ccccc2)ccc1NC(=O)c1c(Cl)cnn1CC1CN(C(=O)C(C)C)CCO1 (stereo not drawn) [Compound 420, N-(4-(benzyloxy)-2-methylphenyl)-4-chloro-1-((4-isobutyrylmorpholin-2-yl)methyl)-1H-pyrazole-5-carboxamide] |
| 6.45 | Cc1cc(OCc2ccccc2)ccc1NC(=O)c1c(Cl)cnn1CC1CN(C(=O)C2CC2)CCO1 (stereo not drawn) [Compound 432, N-(4-(benzyloxy)-2-methylphenyl)-4-chloro-1-((4-(cyclopropanecarbonyl)morpholin-2-yl)methyl)-1H-pyrazole-5-carboxamide] |
| 2.57 | COc1ccc(-c2cnc(NC(=O)c3c(Cl)cnn3C3CCN(C(=O)OC(C)(C)C)CC3)c(C)c2)cn1 [Compound 407, tert-butyl 4-(4-chloro-5-((6′-methoxy-5-methyl-[3,3′-bipyridin]-6-yl)carbamoyl)-1H-pyrazol-1-yl)piperidine-1-carboxylate] |

Same assay, conditions: TREK-1 Thallium (Tl+) flux assay; no *^12 (Method 2) mark on these rows

| IC50 [µM] | Structure (SMILES) |
| --- | --- |
| 0.5 | Cc1cc(C#Cc2cccc(F)c2)cnc1NC(=O)c1c(Cl)cnn1C[C@H]1COCCO1 [Compound 286, (S)-1-((1,4-dioxan-2-yl)methyl)-4-chloro-N-(5-((3-fluorophenyl)ethynyl)-3-methylpyridin-2-yl)-1H-pyrazole-5-carboxamide] |
| 0.65 | Cc1cc(C#Cc2ccccc2)cnc1NC(=O)c1c(Cl)cnn1C1CCN(C(=O)OC(C)(C)C)CC1 [Compound 328] |
| 0.61 | Cc1ccc(C#Cc2cnc(NC(=O)c3c(Cl)cnn3[C@H]3CCOC3)c(C)c2)cc1 [Compound 316, (S)-4-chloro-N-(3-methyl-5-(p-tolylethynyl)pyridin-2-yl)-1-(tetrahydrofuran-3-yl)-1H-pyrazole-5-carboxamide] |
| 0.9 | CC(C)(C)OC(=O)N[C@H]1CC[C@H](n2ncc(Cl)c2C(=O)Nc2ncc(C#Cc3ccccc3)cc2F)CC1 [Compound 360, tert-butyl (trans-4-(4-chloro-5-((3-fluoro-5-(phenylethynyl)pyridin-2-yl)carbamoyl)-1H-pyrazol-1-yl)cyclohexyl)carbamate] |
| 1.05 | CC(=O)N1CCC(n2ncc(Cl)c2C(=O)Nc2ccc(OCc3ccccc3)cc2C)CC1 [Compound 388, 1-(1-acetylpiperidin-4-yl)-N-(4-(benzyloxy)-2-methylphenyl)-4-chloro-1H-pyrazole-5-carboxamide] |
| 0.32 | Cc1cc(C#Cc2ccccc2)cnc1NC(=O)c1c(Cl)cnn1C[C@H]1COCCO1 [Compound 211, (S)-1-((1,4-dioxan-2-yl)methyl)-4-chloro-N-(3-methyl-5-(phenylethynyl)pyridin-2-yl)-1H-pyrazole-5-carboxamide] |
| 0.31 | CC(=O)N1CC[C@@H](n2ncc(Cl)c2C(=O)Nc2ncc(C#Cc3ccccc3)cc2F)C1 [Compound 203, (R)-1-(1-acetylpyrrolidin-3-yl)-4-chloro-N-(3-fluoro-5-(phenylethynyl)pyridin-2-yl)-1H-pyrazole-5-carboxamide] |
| 0.49 | Cc1cc(C#Cc2ccccc2)cnc1NC(=O)c1c(Cl)cnn1[C@H]1C[C@@H]2CN(C(=O)C3CC3)C[C@@H]2C1 [Compound 282, 4-chloro-1-[(3aR,5s,6aS)-2-(cyclopropanecarbonyl)octahydro-cyclopenta[c]pyrrol-5-yl]-N-[3-methyl-5-(phenylethynyl)pyridin-2-yl]-1H-pyrazole-5-carboxamide] |
| 0.77 | Cc1cc(C#Cc2ccccc2)cnc1NC(=O)c1c(Cl)cnn1CC1CCCO1 (stereo not drawn) [Compound 345, 4-chloro-N-(3-methyl-5-(phenylethynyl)pyridin-2-yl)-1-((tetrahydrofuran-2-yl)methyl)-1H-pyrazole-5-carboxamide] |
| 0.34 | O=C(Nc1ncc(C#Cc2ccccc2)cc1F)c1c(Cl)cnn1CC1CCOC1 (stereo not drawn) [Compound 217, 4-chloro-N-(3-fluoro-5-(phenylethynyl)pyridin-2-yl)-1-((tetrahydrofuran-3-yl)methyl)-1H-pyrazole-5-carboxamide] |
| 0.31 | Cc1cc(C#Cc2cccc(F)c2)cnc1NC(=O)c1c(Cl)cnn1C1CCN(C(=O)C(C)(C)C)CC1 [Compound 205, 4-chloro-N-(5-((3-fluorophenyl)ethynyl)-3-methylpyridin-2-yl)-1-(1-pivaloylpiperidin-4-yl)-1H-pyrazole-5-carboxamide] |
| 0.83 | Cc1cc(OCc2ccccc2)ccc1NC(=O)c1c(Cl)cnn1[C@H]1CC[C@@H](NC(=O)C2CC2)CC1 [Compound 385, N-(4-(benzyloxy)-2-methylphenyl)-4-chloro-1-(cis-4-(cyclopropanecarboxamido)cyclohexyl)-1H-pyrazole-5-carboxamide] |

Same assay, conditions: TREK-1 Thallium (Tl+) flux assay; values without footnote *12 are Method 1

| IC50 [µM] | Structure (SMILES) |
| --- | --- |
| 0.2 | Cc1cc(C#Cc2ccccc2)cnc1NC(=O)c1c(Cl)cnn1C[C@@H]1CCN(C(=O)C(C)C)C[C@@H]1F [Compound 118, 4-chloro-1-(((3R,4S)-3-fluoro-1-isobutyrylpiperidin-4-yl)methyl)-N-(3-methyl-5-(phenylethynyl)pyridin-2-yl)-1H-pyrazole-5-carboxamide] |
| 0.29 | CC(C)C(=O)N1CCC(F)(Cn2ncc(Cl)c2C(=O)Nc2ncc(C#Cc3ccccc3)cc2F)CC1 [Compound 190, 4-chloro-1-((4-fluoro-1-isobutyrylpiperidin-4-yl)methyl)-N-(3-fluoro-5-(phenylethynyl)pyridin-2-yl)-1H-pyrazole-5-carboxamide] |
| 0.3 | Cc1cc(C#Cc2ccccc2)cc(F)c1NC(=O)c1c(Cl)cnn1C1CC(C#N)C1 (stereo not drawn) [Compound 194, 4-chloro-1-(3-cyanocyclobutyl)-N-(2-fluoro-6-methyl-4-(phenylethynyl)phenyl)-1H-pyrazole-5-carboxamide] |
| 0.15 | Cc1cc(C#Cc2cccs2)cnc1NC(=O)c1c(Cl)cnn1C1CCN(C(=O)C2CC2)CC1 [Compound 63, 4-chloro-1-(1-(cyclopropanecarbonyl)piperidin-4-yl)-N-(3-methyl-5-(thiophen-2-ylethynyl)pyridin-2-yl)-1H-pyrazole-5-carboxamide] |
| 0.21 | Cc1cc(C#Cc2ccc(F)cc2)cnc1NC(=O)c1c(Cl)cnn1[C@H]1CC[C@@H](NC(=O)C(C)C)CC1 [Compound 125, 4-chloro-N-(5-((4-fluorophenyl)ethynyl)-3-methylpyridin-2-yl)-1-(cis-4-isobutyramidocyclohexyl)-1H-pyrazole-5-carboxamide] |
| 0.26 | CC(=O)N1CCC(C)(Cn2ncc(Cl)c2C(=O)Nc2ncc(C#Cc3ccccc3)cc2C)CC1 [Compound 166, 1-((1-acetyl-4-methylpiperidin-4-yl)methyl)-4-chloro-N-(3-methyl-5-(phenylethynyl)pyridin-2-yl)-1H-pyrazole-5-carboxamide] |
| 0.2 | CC(=O)N1CC2(CC(n3ncc(Cl)c3C(=O)Nc3ncc(C#Cc4ccccc4)cc3F)C2)C1 [Compound 113, 1-(2-acetyl-2-azaspiro[3.3]heptan-6-yl)-4-chloro-N-(3-fluoro-5-(phenylethynyl)pyridin-2-yl)-1H-pyrazole-5-carboxamide] |
| 0.16 | O=C(Nc1ncc(C#Cc2ccccc2)cc1F)c1c(Cl)cnn1CC1CCOCC1 [Compound 68, 4-chloro-N-(3-fluoro-5-(phenylethynyl)pyridin-2-yl)-1-((tetrahydro-2H-pyran-4-yl)methyl)-1H-pyrazole-5-carboxamide] |
| 0.21 | CC(=O)N1CCC(Cn2ncc(Cl)c2C(=O)Nc2ncc(C#Cc3cccs3)cc2C)CC1 [Compound 123, 1-((1-acetylpiperidin-4-yl)methyl)-4-chloro-N-(3-methyl-5-(thiophen-2-ylethynyl)pyridin-2-yl)-1H-pyrazole-5-carboxamide] |
| 0.07 | Cc1cc(C#Cc2ccccc2)cnc1NC(=O)c1c(Cl)cnn1-c1ccc2c(c1)OCCO2 [Compound 21, 4-chloro-1-(2,3-dihydrobenzo[b][1,4]dioxin-6-yl)-N-(3-methyl-5-(phenylethynyl)pyridin-2-yl)-1H-pyrazole-5-carboxamide] |
| 0.09 | CC(=O)N1CCCC(n2ncc(Cl)c2C(=O)Nc2ncc(C#Cc3ccccc3)cc2F)CC1 (stereo not drawn) [Compound 26] |
| 0.14 | O=C(Nc1ncc(C#Cc2ccccc2)cc1F)c1c(Cl)cnn1C1CCN(C(=O)CC(F)(F)F)CC1 [Compound 55, 4-chloro-N-(3-fluoro-5-(phenylethynyl)pyridin-2-yl)-1-(1-(3,3,3-trifluoropropanoyl)piperidin-4-yl)-1H-pyrazole-5-carboxamide] |
| 0.26 | CC(=O)N1CCC(n2ncc(Cl)c2C(=O)Nc2ncc(C#Cc3ccccc3F)cc2C)CC1 [Compound 164, 1-(1-acetylpiperidin-4-yl)-4-chloro-N-(5-((2-fluorophenyl)ethynyl)-3-methylpyridin-2-yl)-1H-pyrazole-5-carboxamide] |
| 0.23 | Cc1cc(C#Cc2cccc(F)c2)cnc1NC(=O)c1c(Cl)cnn1C1CCN(C(=O)C2CC2)CC1 [Compound 143, 4-chloro-1-(1-(cyclopropanecarbonyl)piperidin-4-yl)-N-(5-((3-fluorophenyl)ethynyl)-3-methylpyridin-2-yl)-1H-pyrazole-5-carboxamide] |

Same assay, conditions: read-out: Tl^+ Assay % inhibition at 30 uM (Minus value indicates activation of TREK-1); at 30 uM; CHO-K1 cells stably expressing human TREK-1; minus = activation

| inhibition at 30 µM [%] | Structure (SMILES) |
| --- | --- |
| -123 | Cc1cc(C#Cc2ccccc2F)cnc1NC(=O)c1nn(CCC2CCN(C(=O)C3CC3)CC2)cc1Cl [Compound 441, 4-chloro-1-(2-(1-(cyclopropanecarbonyl)piperidin-4-yl)ethyl)-N-(5-((2-fluorophenyl)ethynyl)-3-methylpyridin-2-yl)-1H-pyrazole-3-carboxamide] |
